In ChEMBL document CHEMBL5614414, “Discovery of novel arylpyridine derivatives for motile ciliogenesis” (Eur J Med Chem, 2024):
Calls of active or inactive are those of the source. The calls are words filed in the database; no cut-off is given here.

Tests used:
Danio rerio [1] = species on record: Danio rerio; test: Ex vivo activation of Foxj1-mediated motile ciliogenesis pathway in Tg(foxj1a:eGFP)hsc16 zebrafish TL embryo assessed as EGFP expression in spinal ependymal cells at 2.5 uM incubated for 24 hrs by fluorescent stereomicroscope analysis; assay type: functional, cell-based
Danio rerio [2] = species on record: Danio rerio; test: Ex vivo activation of Foxj1-mediated motile ciliogenesis pathway in Tg(foxj1a:eGFP)hsc16 zebrafish TL embryo assessed as EGFP expression in spinal ependymal cells at 5 uM incubated for 24 hrs by fluorescent stereomicroscope analysis; assay type: functional, cell-based
Cytochrome P450 2C9 = Cytochrome P450 2C9 (Homo sapiens, UniProt P11712); test: Inhibition of human CYP2C9 using sulfaphenazole as […] relative to control; assay type: ADME
Cytochrome P450 2D6 = Cytochrome P450 2D6 (Homo sapiens, UniProt P10635); test: Inhibition of human CYP2D6 using quinidine as […] relative to control; assay type: ADME
[3] = Cytotoxicity against CHO-K1 cells; assay type: toxicity, cell-based, Cricetulus griseus; conditions: Chinese hamster
[4] = Metabolic stability in rat liver microsomes assessed as compound remaining incubated for 30 mins; assay type: ADME, Microsome; conditions: read-out: Stability
[5] = AUCt in male mouse at 1 mg/kg, iv; assay type: ADME, organism-based; conditions: in vivo
[6] = Tmax in male mouse at 5 mg/kg, po; assay type: ADME, organism-based; conditions: in vivo
Cytochrome P450 1A2 = target: T1, Cytochrome P450 1A2 (Homo sapiens, UniProt P05177); test: Inhibition of human CYP1A2 using alpha-naphthoflavone as […] relative to control; assay type: ADME
T1 sequence (P05177 whole entry): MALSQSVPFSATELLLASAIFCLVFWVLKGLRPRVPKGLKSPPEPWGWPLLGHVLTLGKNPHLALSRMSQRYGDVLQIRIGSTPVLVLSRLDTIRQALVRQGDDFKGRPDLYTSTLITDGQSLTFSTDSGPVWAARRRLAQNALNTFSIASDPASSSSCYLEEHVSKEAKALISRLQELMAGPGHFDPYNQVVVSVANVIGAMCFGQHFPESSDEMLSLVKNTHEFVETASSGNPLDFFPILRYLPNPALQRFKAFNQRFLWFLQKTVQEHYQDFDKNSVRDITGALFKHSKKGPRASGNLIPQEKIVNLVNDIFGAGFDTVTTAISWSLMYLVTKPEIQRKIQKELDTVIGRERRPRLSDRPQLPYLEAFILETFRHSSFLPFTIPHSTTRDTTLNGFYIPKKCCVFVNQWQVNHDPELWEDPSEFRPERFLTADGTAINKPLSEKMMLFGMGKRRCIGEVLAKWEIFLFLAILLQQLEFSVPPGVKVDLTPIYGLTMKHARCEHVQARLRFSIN

Cytochrome P450 3A4 = Cytochrome P450 3A4 (Homo sapiens, UniProt P08684); test: Inhibition of human CYP3A4 using ketoconazole as […] relative to control; assay type: ADME
[7] = Cytotoxicity against African green monkey Vero cells; assay type: toxicity, cell-based, Chlorocebus sabaeus
[8] = Clearance in male mouse at 1 mg/kg, iv; assay type: ADME, organism-based; conditions: in vivo
Mus musculus [9] = test: Restoration of motile cilia in porcine pancreatic elastase-induced COPD C57BL/6 mouse model assessed as increase in motile cilia in trachea at 2 mg/kg, ip administered every other day for 2 weeks and measured 24 hrs post last dose by DAPI staining based confocal microscopic analysis; assay type: functional, organism-based
[10] = Cytotoxicity against mouse NIH3T3 cells; assay type: toxicity, cell-based
[11] = AUCinfinity in male mouse at 5 mg/kg, po; assay type: ADME, organism-based; conditions: in vivo
[12] = AUCt in male mouse at 5 mg/kg, po; assay type: ADME, organism-based; conditions: in vivo
[13] = Half life in male mouse at 1 mg/kg, iv; assay type: ADME, organism-based; conditions: in vivo
hERG = hERG (Homo sapiens, UniProt Q12809); test: Inhibition of hERG at 10 uM relative to control; assay type: toxicity
[14] = Metabolic stability in mouse liver microsomes assessed as compound remaining incubated for 30 mins; assay type: ADME, Microsome; conditions: read-out: Stability
Mus musculus [15] = test: Restoration of motile cilia in porcine pancreatic elastase-induced COPD C57BL/6 mouse model assessed as decrease in airway damage in trachea at 2 mg/kg, ip administered every other day for 2 weeks and measured 24 hrs post last dose by DAPI staining based confocal microscopic analysis; assay type: functional, organism-based
[16] = AUCinfinity in male mouse at 1 mg/kg, iv; assay type: ADME, organism-based; conditions: in vivo
Cytochrome P450 2C19 = Cytochrome P450 2C19 (Homo sapiens, UniProt P33261); test: Inhibition of human CYP2C19 using amitriptyline as substrate relative to control; assay type: ADME
[17] = Metabolic stability in human liver microsomes assessed as compound remaining incubated for 30 mins; assay type: ADME, Microsome; conditions: read-out: Stability
mTEC = test: Ex vivo activation of Foxj1-mediated motile ciliogenesis pathway in wild type C57BL/6 mTEC (mouse tracheal epithelial cells) assessed as increase in multiciliated cells at 5 uM administered for 4 days starting from airlift interface day 0 with replacement of fresh media for every two days by DAPI staining based confocal laser microscopic analysis; assay type: functional, cell-based; conditions: time 4.0 day
[18] = Cytotoxicity against mouse L929 cells; assay type: toxicity, cell-based
[19] = Half life in male mouse at 5 mg/kg, po; assay type: ADME, organism-based; conditions: in vivo
[20] = Volume of distribution at steady state in male mouse at 1 mg/kg, iv; assay type: ADME, organism-based; conditions: in vivo, read-out: Vdss
[21] = Cytotoxicity against human HFL1 cells; assay type: toxicity, cell-based
[22] = Oral bioavailability in male mouse at 5 mg/kg; assay type: ADME, organism-based; conditions: in vivo
[23] = Cmax in male mouse at 5 mg/kg, po; assay type: ADME, organism-based; conditions: in vivo

Sequence of Cytochrome P450 3A4 (P08684 whole entry): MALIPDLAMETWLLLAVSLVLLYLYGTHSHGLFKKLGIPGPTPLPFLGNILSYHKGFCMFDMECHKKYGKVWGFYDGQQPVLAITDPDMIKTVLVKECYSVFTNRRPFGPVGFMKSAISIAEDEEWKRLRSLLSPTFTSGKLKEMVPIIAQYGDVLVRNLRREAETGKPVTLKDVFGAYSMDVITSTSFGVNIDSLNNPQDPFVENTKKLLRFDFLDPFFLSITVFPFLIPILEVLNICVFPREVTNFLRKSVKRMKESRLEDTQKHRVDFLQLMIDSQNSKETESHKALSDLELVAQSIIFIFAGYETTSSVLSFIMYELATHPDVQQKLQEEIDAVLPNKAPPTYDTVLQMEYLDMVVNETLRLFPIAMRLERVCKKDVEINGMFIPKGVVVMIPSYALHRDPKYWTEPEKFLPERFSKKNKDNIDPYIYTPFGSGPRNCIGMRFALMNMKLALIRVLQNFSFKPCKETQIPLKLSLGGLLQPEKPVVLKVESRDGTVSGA
Sequence of hERG (Q12809 whole entry): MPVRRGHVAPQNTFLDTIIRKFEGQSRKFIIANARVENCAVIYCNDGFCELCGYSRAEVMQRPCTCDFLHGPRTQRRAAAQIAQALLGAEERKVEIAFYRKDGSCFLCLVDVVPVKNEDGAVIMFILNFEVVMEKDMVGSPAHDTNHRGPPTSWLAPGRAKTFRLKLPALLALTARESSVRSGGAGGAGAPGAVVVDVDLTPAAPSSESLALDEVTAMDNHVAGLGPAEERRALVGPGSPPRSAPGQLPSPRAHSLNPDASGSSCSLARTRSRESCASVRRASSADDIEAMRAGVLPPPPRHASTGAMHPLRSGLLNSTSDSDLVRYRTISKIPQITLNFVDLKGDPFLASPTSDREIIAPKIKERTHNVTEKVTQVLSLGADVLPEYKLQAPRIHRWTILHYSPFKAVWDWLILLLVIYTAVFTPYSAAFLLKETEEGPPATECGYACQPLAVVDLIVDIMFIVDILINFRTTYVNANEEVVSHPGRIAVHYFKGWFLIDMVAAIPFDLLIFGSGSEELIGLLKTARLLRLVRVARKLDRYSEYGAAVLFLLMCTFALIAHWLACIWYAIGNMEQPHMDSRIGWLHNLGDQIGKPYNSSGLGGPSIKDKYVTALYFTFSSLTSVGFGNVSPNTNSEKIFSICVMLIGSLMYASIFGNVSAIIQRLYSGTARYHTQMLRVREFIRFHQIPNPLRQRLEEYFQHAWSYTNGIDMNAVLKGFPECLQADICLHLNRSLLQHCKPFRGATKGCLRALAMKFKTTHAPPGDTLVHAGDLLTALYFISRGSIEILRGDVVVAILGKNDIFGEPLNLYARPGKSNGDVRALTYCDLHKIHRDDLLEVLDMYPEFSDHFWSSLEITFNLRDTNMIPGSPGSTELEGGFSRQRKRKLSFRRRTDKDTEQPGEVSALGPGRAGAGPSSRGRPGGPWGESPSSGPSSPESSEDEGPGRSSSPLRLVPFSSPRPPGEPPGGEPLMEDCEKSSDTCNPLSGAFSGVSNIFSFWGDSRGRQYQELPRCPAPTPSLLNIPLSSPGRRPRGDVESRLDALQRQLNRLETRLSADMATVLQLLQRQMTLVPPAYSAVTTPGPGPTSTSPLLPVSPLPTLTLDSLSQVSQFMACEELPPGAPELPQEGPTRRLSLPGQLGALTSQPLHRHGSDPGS
Sequence of Cytochrome P450 2C19 (P33261 whole entry): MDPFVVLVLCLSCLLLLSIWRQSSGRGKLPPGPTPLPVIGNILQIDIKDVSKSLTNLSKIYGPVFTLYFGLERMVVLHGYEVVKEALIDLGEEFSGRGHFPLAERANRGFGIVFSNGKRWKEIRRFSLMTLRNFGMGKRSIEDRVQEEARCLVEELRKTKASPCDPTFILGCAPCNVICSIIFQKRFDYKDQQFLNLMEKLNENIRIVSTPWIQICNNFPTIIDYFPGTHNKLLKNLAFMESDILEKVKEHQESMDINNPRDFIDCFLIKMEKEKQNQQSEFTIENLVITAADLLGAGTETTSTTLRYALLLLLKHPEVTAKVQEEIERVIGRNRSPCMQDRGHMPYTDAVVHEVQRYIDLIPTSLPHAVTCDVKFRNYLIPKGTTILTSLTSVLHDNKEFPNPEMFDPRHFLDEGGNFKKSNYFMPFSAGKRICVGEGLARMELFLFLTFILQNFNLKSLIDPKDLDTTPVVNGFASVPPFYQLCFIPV
Sequence of Cytochrome P450 2D6 (P10635 whole entry): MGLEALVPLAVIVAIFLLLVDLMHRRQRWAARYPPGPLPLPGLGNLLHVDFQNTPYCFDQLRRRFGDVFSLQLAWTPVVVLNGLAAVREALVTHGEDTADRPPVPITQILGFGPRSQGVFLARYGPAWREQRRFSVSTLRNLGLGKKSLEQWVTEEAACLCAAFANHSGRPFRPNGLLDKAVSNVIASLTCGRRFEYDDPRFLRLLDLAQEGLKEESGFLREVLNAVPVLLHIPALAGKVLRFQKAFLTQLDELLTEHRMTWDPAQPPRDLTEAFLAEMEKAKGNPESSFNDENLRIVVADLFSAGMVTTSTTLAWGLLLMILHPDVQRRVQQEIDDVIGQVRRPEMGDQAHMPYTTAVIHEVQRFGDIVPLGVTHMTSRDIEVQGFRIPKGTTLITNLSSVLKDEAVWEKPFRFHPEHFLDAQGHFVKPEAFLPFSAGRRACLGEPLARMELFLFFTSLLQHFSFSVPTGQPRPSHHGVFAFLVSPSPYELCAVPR
Sequence of Cytochrome P450 2C9 (P11712 whole entry): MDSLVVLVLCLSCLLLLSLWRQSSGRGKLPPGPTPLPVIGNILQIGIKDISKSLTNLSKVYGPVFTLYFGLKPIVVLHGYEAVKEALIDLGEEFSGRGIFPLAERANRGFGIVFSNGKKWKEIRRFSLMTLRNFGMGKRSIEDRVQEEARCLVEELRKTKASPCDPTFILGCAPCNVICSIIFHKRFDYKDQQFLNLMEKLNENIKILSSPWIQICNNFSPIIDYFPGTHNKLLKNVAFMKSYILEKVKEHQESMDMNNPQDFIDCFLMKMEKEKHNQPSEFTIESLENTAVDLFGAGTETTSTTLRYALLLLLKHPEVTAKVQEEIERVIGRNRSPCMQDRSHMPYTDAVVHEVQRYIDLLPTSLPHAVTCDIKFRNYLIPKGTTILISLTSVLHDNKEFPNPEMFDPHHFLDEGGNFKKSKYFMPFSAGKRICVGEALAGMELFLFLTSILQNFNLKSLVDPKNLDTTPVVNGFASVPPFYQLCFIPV

SMILES: CC(C)(C)Nc1ncc(-c2cnn(CCC(=O)O)c2)cc1-c1nc2ccccc2o1
- Activity (Danio rerio [1]): Active

SMILES: CC(C)(C)Nc1ncc(-c2cn[nH]c2)cc1-c1nc2ccccc2o1
- Activity (Danio rerio [2]): Active

SMILES: Nc1cccc(-c2cnc(N3CCCCC3)c(-c3nc4ccccc4o3)c2)c1
- Activity (Danio rerio [2]): Active

SMILES: CNc1ncc(-c2cccc(N)c2)cc1-c1nc2ccccc2o1
- Activity (Danio rerio [2]): Active

SMILES: CC(C)(C)Nc1ncc(-c2ccsc2)cc1-c1nc2ccccc2o1
- Activity (Danio rerio [2]): Active

SMILES: CC(C)(C)Nc1ncc(-c2cnn(C(C)(C)CC(=O)O)c2)cc1-c1nc2ccccc2o1
- inhibition (INH) (Cytochrome P450 2C9): 31.9%
- inhibition (INH) (Cytochrome P450 2D6): < 1%
- IC50 [3]: > 100 µM
- remaining at 0.5 h [4]: > 99.9%
- AUC(0-t) [5]: 12500 ng·h/mL
- Tmax [6]: 3.67 h
- inhibition (INH) (Cytochrome P450 1A2): 1.17%
- inhibition (INH) (Cytochrome P450 3A4): < 1%
- IC50 [7]: > 100 µM
- Activity (Danio rerio [2]): Active
- clearance [8]: 1.33 mL/min/kg
- Activity (Mus musculus [9]): Active
- IC50 [10]: > 100 µM
- AUC(0-inf) [11]: 62900 ng·h/mL
- AUC(0-t) [12]: 53100 ng·h/mL
- half-life [13]: 3.51 h
- inhibition at 10 µM (hERG): < 1%
- remaining at 0.5 h [14]: > 99.9%
- Activity (Mus musculus [15]): Active
- AUC(0-inf) [16]: 12600 ng·h/mL
- Activity (Danio rerio [1]): Active
- inhibition (INH) (Cytochrome P450 2C19): 17.4%
- remaining at 0.5 h [17]: > 99.9%
- Activity (mTEC): Active
- IC50 [18]: > 100 µM
- half-life [19]: 3.55 h
- Vd [20]: 0.4 L/kg
- IC50 [21]: > 100 µM
- bioavailability [22]: 85%
- Cmax [23]: 5160 ng/mL

SMILES: CC(CC(=O)O)n1cc(-c2cnc(NC(C)(C)C)c(-c3nc4ccccc4o3)c2)cn1 (configuration not stated)
- Activity (Danio rerio [1]): Active

SMILES: Nc1cccc(-c2cnc(N3CCOCC3)c(-c3nc4ccccc4o3)c2)c1
- Activity (Danio rerio [2]): Active

SMILES: CN1CCN(c2ncc(-c3cccc(N)c3)cc2-c2nc3ccccc3o2)CC1
- Activity (Danio rerio [2]): Active

SMILES: CC(C)(C)Nc1ncc(-c2ccoc2)cc1-c1nc2ccccc2o1
- Activity (Danio rerio [2]): Active

SMILES: Nc1cccc(-c2cnc(N3CCNCC3)c(-c3nc4ccccc4o3)c2)c1
- Activity (Danio rerio [2]): Active

SMILES: Nc1cccc(-c2cnc(N)c(-c3nc4ccccc4o3)c2)c1
- Activity (Danio rerio [2]): inactive

SMILES: CC(C)(C)Nc1ncc(-c2cccc(N)c2)cc1-c1nc2ccccc2o1
- Activity (Danio rerio [2]): Active

SMILES: CC(C)(C)Nc1ncc(-c2ccccc2)cc1-c1nc2ccccc2o1
- Activity (Danio rerio [2]): Active

SMILES: CC(C)(C)Nc1ncc(-c2cnn(C(C)(C)CC(=O)O)c2)cc1-c1nc2ccccc2[nH]1
- Activity (Danio rerio [2]): Active

SMILES: CC(C)(C)Nc1ncc(-c2ccccn2)cc1-c1nc2ccccc2o1
- Activity (Danio rerio [2]): Active

SMILES: CC(C)(C)Nc1ncc(-c2cccnc2)cc1-c1nc2ccccc2o1
- Activity (Danio rerio [2]): Active

SMILES: CCCCNc1ncc(-c2cccc(N)c2)cc1-c1nc2ccccc2o1
- Activity (Danio rerio [2]): Active
